Source: patent publication US9486535B2, “Methods of making and using nanostructures” (REGENTS OF THE UNIVERSITY OF MINNESOTA, priority 2012, dated 2016)
Read-outs that look alike come from different tables or passages of the source. {bisMTX} = bis-methotrexate conjugate; {Fluorescein} = fluorescein label

Legend:
Solubility in water = format: physicochemical
HPB-MLT cells [1] = assay: Fluorescence confocal microscopy of internalization; format: cell-based; settings: 37° C., 1 hr
Procedure: BisMTX-FITC (or BisMTX-PG) and the appropriate DHFR fusion protein were mixed (250 nM) and added to 0.5×10^6 HPB-MLT cells at either 4 or 37° C. for 1 hr in RPMI media. Cells were then pelleted by centrifugation (400×g, 5 min). After being washed twice with PBS (phosphate buffered saline) cells were incubated on Poly-Prep slides coated with poly-L-Lysine (Sigma) at 4 or 37° C. for 30 mins. Cells were then fixed with 4% paraformaldehyde solution for 10 mins and washed thrice with PBS. Finally, cells were treated with ProLong Gold Antifade reagent with DAPI (Invitrogen), a cover slip was applied.
After overnight incubation, images were taken within inner sections of the cells by sequential scanning using a fluorescence confocal microscopy using an Olympus FluoView 1000 BX2 Upright Confocal microscope. Resulting images are the compression of 3-5 z-axis slices. For disassembly experiments after the initial one hour incubation cells were washed twice with PBS before being resuspended in media containing 2 mM trimethoprim, 0.5 mM pyrimethamine or DMSO for three hours at 37° C. after which time they were processed as above. […]
0.5×10^6 HPB-MLT cells were treated with FITC or BODIPY labeled constructs (1 μM) at either 4 or 37° C. for 1 hr in RPMI media. […] After overnight incubation they were imaged by fluorescence confocal microscopy using a Olympus FluoView 1000 BX2 Upright Confocal microscope. […]

HPB-MLT cells [2] = assay: Flow cytometry binding to CD3+ cells; format: cell-based; settings: 4° C., 1 hr
Procedure: 1×10^6 HPB-MLT (or Raji) cells were treated with BisMTX-FITC containing CSAN constructs at the required concentrations at 4° C. for 1 hr in PBS buffer (containing 0.05% BSA and 0.1% sodium azide). Cells were centrifuged (400×g, 10 min), washed twice with PBS/BSA/sodium azide buffer before being resuspended in the same buffer. Their fluorescence was analyzed with a FACSCalibur flow cytometer (BD Biosciences). For competition experiments, HPB-MLT cells were incubated with 40 nM UCHT-1 on ice for 10 mins prior to addition BisMTX-FITC CSAN constructs anti-CD3 constructs (100 nM) followed by washing as above. For disassembly experiments HPB-MLT cells were treated with 150 nM CSANs or 3.95 nM UCHT-1 FITC for 1 hour at 37° C. before being washed twice with RPMI media and finally resuspended in media. […] Samples were stored at 4° C. in the dark until analyzed.
1×10^6 HPB-MLT cells were treated with FITC or BODIPY labeled constructs (1/0.5/0.1 μM) at 4° C. for 1 hr in PBS buffer (containing 0.05% BSA and 0.1% sodium azide). Cells were pelleted (400×g, 10 min), washed twice, and finally resuspended in the supplemented PBS and their fluorescence was analyzed with a FACSCalibur flow cytometer (BD Biosciences). […] After 1 hr incubation cells were washed, resuspended and analyzed by flow cytometry. […]

HPB-MLT cells [3] = assay: Cytotoxicity analysis (CellTiter 96 AQueous cell proliferation assay); format: cell-based
Procedure: 2.5×10^4 HPB-MLT cells were mixed with the appropriate concentration of antiCD3 CSANs in a total volume of 90 uL and incubated at 37° C. for one hour. […] Cell viability was determined using CellTiter 96 AQueous Non-Radioactive Cell Proliferation Assay (Promega).

DHFR = settings: cited from earlier work

With `CN(Cc1cnc2nc(N)nc(N)c2n1)c1ccc(C(=O)N[C@@H](CCC(=O)NCCCCCN(CCCCCNC(=O)CC[C@@H](NC(=O)c2ccc(N(C)Cc3cnc4nc(N)nc(N)c4n3)cc2)C(=O)O)CCOCCOCCN)C(=O)O)cc1` [bis-MTX-NH2] the “solubility in water” value (Solubility in water) was “water soluble”.
With “5′ Fluorescein-TGTCATATTCCTGGATCC-Bis-MTX 3′ (5' {Fluorescein}, 3' {bisMTX}, sugars by position and backbone not given here; further chemistry not fully specified) [bis-MTX oligo FITC, bis-MTX oligo conjugate labelled with fluorescein]” the “internalization (confocal)” value (HPB-MLT cells [1]) was “no increased cellular fluorescence” and the “cell fluorescence relative to unstained/untreated cells (binding)” value (HPB-MLT cells [2]) was “only a small increase in fluorescence”.
In the case of bis-methotrexate [bisMTX], the “toxicity to HPB-MLT cells” value (HPB-MLT cells [3]) is reported as “non-toxic” and the IC50 (HPB-MLT cells [3]; 72 h; read-out: IC50 (inhibition of cellular proliferation)) is reported as greater than 20 µM.
In the case of `CN(Cc1cnc2nc(N)nc(N)c2n1)c1ccc(C(=O)N[C@@H](CCC(=O)O)C(=O)O)cc1` [MTX, methotrexate], the IC50 (HPB-MLT cells [3]; 72 h, read-out: IC50 (inhibition of cellular proliferation)) is given as 0.6 µM, the IC80 (HPB-MLT cells [3]; 72 h; read-out: IC80 (inhibition of cellular proliferation)) is given as greater than 50 µM and the “enhancement of the affinity of MTX for DHFR by NADPH” value (DHFR) is given as “at least 100 fold”.
For `CN(Cc1cnc2nc(N)nc(N)c2n1)c1ccc(C(=O)N[C@@H](CCC(=O)NCCCCCN(CCCCCNC(=O)CC[C@@H](NC(=O)c2ccc(N(C)Cc3cnc4nc(N)nc(N)c4n3)cc2)C(=O)O)CCOCCOCCNC(=S)Nc2cccc(-c3c4ccc(=O)cc-4oc4cc(O)ccc34)c2C(=O)O)C(=O)O)cc1` [bisMTX-FITC], the “internalization (confocal)” value (HPB-MLT cells [1]) was “no observable internalized fluorescence”.
